From patent publication US5324742A, “Aldose reductase inhibitor obtained from Crucibulum sp. RF-3817” (Shionogi & Co., Ltd., priority 1990, dated 1994)
“Also recorded” adds a separate entry of the source.

What was measured:
[1] = Solubility in solvents; assay type: physicochemical; conditions: for State: solubility in organic solvents: organic solvents such as ethyl acetate, acetone, methanol, and ethanol
[2] = target: T1, aldose reductase (Rattus norvegicus, UniProt P07943); assay: Aldose reductase-inhibiting activity (rat lens homogenate supernatant, D,L-glyceroaldehyde substrate, TPNH coenzyme); assay type: biochemical; conditions: 10 mM D,L-glyceroaldehyde, 0.1 mM TPNH, pH 6.2, 25° C., absorbance at 340 nm
T1 construct: A homogenate of rat lenses was used as an enzyme source; from tissue; host or cells: rat lens, supernatant of the homogenate after centrifugation
Procedure: Aldose Reductase-Inhibiting Activity
A homogenate of rat lenses was used as an enzyme source, glyceroaldehyde as a substrate, and TPNH as a coenzyme. To a mixture of 0.1M phosphate buffer (pH 6.2), 0.4M sodium sulfate, 0.1 mM TPNH (reduced form of triphosphopyridine nucleotide), and 10 mM D, L-glyceroaldehyde, a supernatant obtained from the homogenate of rat lenses by centrifugation was added as an enzyme source, so that the change in absorbance at 340 nm became 0.02 units per minute at 25° C. The change in absorbance at 340 nm for initial one minute was measured at 25° C., and the inhibiting activity was determined.

SMILES | State: solubility in organic solvents [1] | Solubility ([1]; solvents: ethyl acetate, DMSO, methanol, ethanol, chloroform, ether, petroleum ether) | IC50 [2] [µM]
CC(C(=O)O)C1Cc2c(cc3c(c2O)C(=O)N(C(C)C(=O)O)C3=O)O1 (centres unmarked) [RD-01-C3] | soluble | – | –
CC(C(=O)O)C1Cc2c(cc3c(c2O)C(=O)NC3=O)O1 (centres unmarked) [RD-01-C1] | soluble | – | –
CC(C(=O)O)C1Cc2c(cc3c(c2O)C(=O)N(CC(=O)O)C3=O)O1 (centres unmarked) [RD-01-C2] | soluble | – | –
CC(C(=O)O)C1Cc2c(cc3c(c2O)CN(CC(=O)O)C3=O)O1 (centres unmarked) [RD-01-A4] | soluble | soluble in ethyl acetate, DMSO, methanol, and ethanol; also recorded: slightly soluble in chloroform and ether; also recorded: insoluble in petroleum ether | –
CC(C(=O)O)C1Cc2c(cc3c(c2O)CN(C(CCC(=O)O)C(=O)O)C3=O)O1 (centres unmarked) [RD-01-A3] | soluble | – | 11.9
CC(C(=O)O)C1Cc2c(cc3c(c2O)CN(C(C)C(=O)O)C3=O)O1 (centres unmarked) [RD-01-A7] | soluble | – | –
